Patent US20120309734A1, “COMBRETASTATIN DERIVATIVES AND USES THEREFOR” (priority 2009, published 2012)
pIC50: −log10 of the molar value.

Tests used:
A2780-ADR (PGP) = test: Alamar Blue cell viability assay
Protocol: (§1) Three drug resistant cell lines and respective parental cell lines were assessed. […] Western blot analysis confirmed the overexpression of p-glycoprotein and BCRP in respective cell lines.
(§2) Cells were exposed to multiple concentrations of the indicated compound for 72 h. Cell viability was assessed using the Alamar blue assay and respective IC50 values were calculated. The resistance factor (RF) was calculated by dividing the IC50 of the resistant cell line/IC50 of the parental cell line.
(§3) All cells were cultured in RPMI-1640 Glutamax medium supplemented with 10% FCS media, 100 units/ml penicillin and 100 μg/mIstreptomycin. Cells were maintained at 37° C. in 5% CO2 in a humidified incubator.
(§4) The reduction of Alamar Blue is proportional to the number of viable cells. Cells (200 μl) were plated in triplicate in a 96-well plates (K562, 100,000/ml; HL-60, 300,000/ml; A-2780 50,000/ml). A-2780 cells were plated 24 h prior to treatment. Suspension cells were plated in the log phase of growth and treated immediately. The cells were then treated with either medium alone, vehicle (1% ethanol v/v or 0.1% DMSO v/v) or with a range of concentrations of drug [0.001-10 μM]. After 72 h, Alamar Blue was added to each well (10% of final volume) and fluorescence was read using a 96-well fluorometer with excitation at 530 nm and emission of 590 nm. The blank solution consisted of medium and Alamar Blue and the blank solution was used to calibrate the spectrophotometer to zero absorbance. The relative cell viability (%) related to control wells and was calculated by [A]test/[A]control×100 where [A]test is the absorbance of the drug treated cells and [A]control the absorbance of the vehicle control treated cells. Dose response curves were plotted and IC50 values (concentration of drug resulting in 50% reduction in cell survival) were obtained using the commercial software package Prism (GraphPad Software, Inc., La Jolla, USA). Experiments were performed in triplicate on at least three separate occasions.

[1] = test system: primary endothelial cell (HUVEC); test: Endothelial cell proliferation, AlamarBlue; format: cell-based; conditions: Homo sapiens, 72 h, read-out: IC50, proliferation of HUVECs
Protocol: A range of concentrations of cis β-lactam 4, were tested on primary endothelial cell (HUVEC) proliferation. HUVEC cells (20,000 cells/well) were seeded onto 96-well plates for 24 h and treated in triplicate with vehicle alone (1% (v/v) ethanol) or a range of concentrations of compound 4 for 72 h. The cells were then incubated in 10% (v/v) AlamarBlue and its reduction to a fluorescent state measured at excitation 544 nm and emission 590 nm using a multi-well fluorimeter. The results were expressed as the percentage cell proliferation relative to vehicle-treated control cells (100%). Values represent the mean±the S.E.M for three separate experiments. IC50 values were obtained using Prism GraphPad 4.
Pooled primary human umbilical vein endothelial cells (HUVECs) and their associated reagents were all obtained from Cascade Biologics, Invitrogen, Carlsbad, Calif., USA. HUVECs were maintained between passages 1-4 in Medium 200 supplemented with LSGS (low serum growth factor supplement) and utilised for experiments at passage 4.

HL-60 parental = test: Alamar Blue cell viability assay; format: cell-based; conditions: Homo sapiens, 72 h
Protocol: as §2
(§5) A2780-parental and A2780-ADR resistant cells were provided by the Beatson Institute of Cancer Research, Glasgow. […] All cells were cultured in RPMI-1640 Glutamax medium supplemented with 10% FCS media, 100 units/ml penicillin and 100 μg/mIstreptomycin. Cells were maintained at 37° C. in 5% CO2 in a humidified incubator.
as §4

p-glycoprotein = target: T1, p-glycoprotein (Homo sapiens, UniProt P08183); test: Anti-proliferative effects in multi-drug resistant cells, conclusion on efflux; format: cell-based; conditions: concluded from resistance factors
T1 construct: HL-60-MDR (overexpress p-glycoprotein); endogenous in cells; host or cells: HL-60-MDR, A2780-ADR
T1 sequence (P08183 whole entry): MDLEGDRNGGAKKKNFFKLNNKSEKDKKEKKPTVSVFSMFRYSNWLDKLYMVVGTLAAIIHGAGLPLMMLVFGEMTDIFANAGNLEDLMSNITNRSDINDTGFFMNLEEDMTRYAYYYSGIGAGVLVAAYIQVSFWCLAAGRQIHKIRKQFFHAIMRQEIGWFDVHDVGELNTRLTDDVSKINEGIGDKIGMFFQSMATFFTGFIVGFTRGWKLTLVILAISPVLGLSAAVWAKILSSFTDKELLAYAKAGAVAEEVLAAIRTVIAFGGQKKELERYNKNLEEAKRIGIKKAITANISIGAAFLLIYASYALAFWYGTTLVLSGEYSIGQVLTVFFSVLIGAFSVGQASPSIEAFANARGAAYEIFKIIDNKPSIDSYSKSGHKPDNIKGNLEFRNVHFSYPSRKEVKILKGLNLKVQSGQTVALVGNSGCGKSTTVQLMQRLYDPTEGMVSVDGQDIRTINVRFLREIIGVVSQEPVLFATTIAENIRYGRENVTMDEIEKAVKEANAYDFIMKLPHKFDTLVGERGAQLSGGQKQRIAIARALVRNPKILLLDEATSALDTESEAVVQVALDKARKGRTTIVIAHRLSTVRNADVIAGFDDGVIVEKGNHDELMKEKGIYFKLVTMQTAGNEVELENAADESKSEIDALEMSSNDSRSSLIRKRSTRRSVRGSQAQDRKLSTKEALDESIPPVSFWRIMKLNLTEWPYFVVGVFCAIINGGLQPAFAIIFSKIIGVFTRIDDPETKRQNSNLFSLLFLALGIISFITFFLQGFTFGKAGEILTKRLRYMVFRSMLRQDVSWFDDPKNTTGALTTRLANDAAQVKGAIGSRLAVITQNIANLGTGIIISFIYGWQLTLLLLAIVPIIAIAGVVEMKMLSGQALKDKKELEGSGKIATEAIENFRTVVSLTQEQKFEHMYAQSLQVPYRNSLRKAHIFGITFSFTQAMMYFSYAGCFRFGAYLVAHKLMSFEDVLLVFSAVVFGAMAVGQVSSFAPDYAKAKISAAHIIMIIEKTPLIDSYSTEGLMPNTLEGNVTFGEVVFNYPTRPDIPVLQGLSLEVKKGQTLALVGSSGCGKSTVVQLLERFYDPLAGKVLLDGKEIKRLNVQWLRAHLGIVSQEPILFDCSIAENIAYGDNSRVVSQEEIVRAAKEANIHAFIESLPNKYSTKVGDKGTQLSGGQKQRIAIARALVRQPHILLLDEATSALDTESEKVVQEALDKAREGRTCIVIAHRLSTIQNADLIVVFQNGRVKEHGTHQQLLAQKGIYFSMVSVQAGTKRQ
Protocol: as §1, §2

[2] = test system: microtubule network of endothelial cells (HUVECs); test: Microtubule network immunofluorescence; format: cell-based, human; conditions: 50 nM, 16 h
Protocol: FIG. 9 illustrates the effect of compound 4 in destabilising the microtubule network of endothelial cells. HUVECs (0.6×10^5 cell/chamber), grown on 4-chamber glass slides for 24 h were treated with vehicle (0.5% (v/v) ethanol) or 50 nM compound 4 for 16 h. The cells were then fixed in 100% methanol at −20° C., incubated with a monoclonal anti-α-tubulin antibody (Merck Biosciences, Nottingham, UK), followed by a FITC-conjugated anti-mouse antibody (DakoCytomation, Glostrup, Denmark) and then briefly stained with propidium iodide. The chamber partitions were removed from the slides and anti-quenching solution (2 mg/ml p-phenylenediamine in 50:50 glycerol to PBS solution) was applied to the surface of each slide and coverslips mounted. The organisation of the microtubule network and the cellular DNA was visualised using an Olympus IX81 Fluorescent Microscope (Olympus Corporation, Tokyo, Japan) at a magnification of 600×. The photographs illustrated in FIG. 9 are representative of three independent experiments.

HUVEC cells = test: HUVEC DNA content by flow cytometry (PI); format: cell-based, human; conditions: 24 h
Protocol: FIG. 8 illustrates the anti-proliferative response of endothelial cells to compound 4. HUVEC cells were treated with vehicle (0.5% (v/v) ethanol) or the indicated concentrations of 4 for 24 h and fixed by a drop-wise addition of ice-cold ethanol. Cells were then stained with 0.15 mg/ml propidium iodide (PI) and their DNA content assessed using a FACSCalibur flow cytometer (Becton Dickinson, San Jose, Calif., USA). Data collections (10,000 events per sample) were gated to exclude cell debris and cell aggregates. Analysis of data was performed using the CellQuest software (Becton Dickinson). PI fluorescence was proportional to the amount of DNA present in each entity and therefore indicated the stage of the cell cycle. Cells in the subG0/G1 phase (<2N DNA) were deemed apoptotic, while cells with 4N quantities of DNA were considered to be in the G2/M phase of the cell cycle. Values represent the mean±S.E.M for three independent experiments.

[3] = test system: breast carcinoma MDA-MB-231 cells; test: Transwell migration assay; format: cell-based, human; conditions: 50 nM, 6 h
Protocol: FIG. 12 illustrates the migration of breast carcinoma MDA-MB-231 cells across transwell filters in the presence of vehicle (0.5% (v/v) ethanol) or 50 nM compound 4. Migration was expressed as a percentage of migration of vehicle-treated cells (100%). MDA-MB-231 cells (cultured as described supra) were seeded at a density of 2.5×10^4 cells/well onto 24-well Falcon migration inserts (8 μm pore size) in serum-free medium. Inserts were placed into Falcon companion plates containing 20% FBS and either vehicle (0.5% (v/v) ethanol) or 50 nM compound 4 and incubated for 6 h. The upper surfaces of the inserts were swabbed to remove non-migrated cells. Migrated cells on the underside of the membrane were fixed in methanol, stained with Mayers Hematoxylin, dehydrated in methanol and mounted on a glass slide. The number of cells in 5 fields at 10× magnification was counted. […] P-values were determined using a two-tailed Student's paired t-test. A value of P<0.05 was considered to be significant. Incubation for 6 h with compound 4 prevented MDA-MB-231 cell migration by 95.7% (***P<0.0001).

SNB-75 = test: NCI60 cell line screen; format: cell-based; conditions: Homo sapiens, CNS
HL-60-BCRP = test: Alamar Blue cell viability assay
Protocol: as §1, §2, §3, §4

A2780-parental = test: Alamar Blue cell viability assay; format: cell-based; conditions: 72 h
Protocol: as §2, §5, §4

HUVECs = test: In vitro tubule formation on matrigel; format: cell-based, human; conditions: 50 nM, 6 h
Protocol: FIG. 10 depicts the effect of compound 4 on in vitro tubule formation. HUVECs (1.5×10^6 cells/well) were grown on matrigel-coated 6-well plates for 6 h in the presence of vehicle (0.5% (v/v) ethanol) or 50 nM compound 4. […] The pictures shown in FIG. 10 are representative of three independent experiments. HUVECs seeded onto Matrigel in the presence of vehicle (0.5% (v/v) ethanol) underwent alignment into the capillary-like structures.

MALME-3M = test: NCI60 cell line screen; conditions: Homo sapiens
MOLT-4 = test: NCI60 cell line screen; conditions: Homo sapiens

Question: With `COc1ccc(C2C(c3ccccc3)C(=O)N2c2cc(OC)c(OC)c(OC)c2)cc1O` (stereo not drawn) [Compound 4, 4-(3-Hydroxy-4-methoxyphenyl)-3-phenyl-1-(3,4,5-trimethoxyphenyl)-azetidin-2-one] as the molecule, how does the pIC50 (A2780-ADR (PGP); A2780 ADR, 72 h) read?
Answer: The pIC50 was 7.98.

Question: What about the RF (A2780-ADR (PGP); IC50 A2780-ADR (PGP) / IC50 A2780-parental) of the same molecule?
Answer: The RF was 0.5.

Question: What about the pIC50 [1] of the same molecule?
Answer: Its pIC50 is 8.40.

Question: And the pIC50 (HL-60 parental)?
Answer: The pIC50 was 7.75.

Question: And the “substrate for the p-glycoprotein” value (p-glycoprotein)?
Answer: The value was “poor substrates for the p-glycoprotein”.

Question: What about the “effect on tubulin cytoskeleton” value [2] of the same molecule?
Answer: The value was “gross morphological changes in their tubulin cytoskeleton typical of depolymerising agents”.

Question: What about the “effect on levels of apoptosis or G2/M” value (HUVEC cells; 1 nM) of the same molecule?
Answer: The value was “not sufficient to affect the levels of apoptosis or G2/M”.

Question: And the “apoptosis (subG0/G1)” value (HUVEC cells; 10 nM)?
Answer: The value was 35.1%.

Question: What about the “cells in the G2/M phase” value (HUVEC cells; 10 nM) of the same molecule?
Answer: The value was 36.9%.

Question: What about the “apoptosis (subG0/G1)” value (HUVEC cells; 50 nM) of the same molecule?
Answer: Its value is 31.4%.

Question: And the “cells in the G2/M phase” value (HUVEC cells; 50 nM)?
Answer: Its value is 37.0%.

Question: And the “apoptosis (subG0/G1)” value (HUVEC cells; 100 nM)?
Answer: The value was 28.0%.

Question: And the “cells in the G2/M phase” value (HUVEC cells; 100 nM)?
Answer: The value was 39.8%.

Question: What about the “prevention of MDA-MB-231 cell migration” value [3] of the same molecule?
Answer: The value was 95.7%.

Question: And the GI50 (SNB-75)?
Answer: The GI50 was 47 nM.

Question: What about the pIC50 (HL-60-BCRP; Homo sapiens, 72 h) of the same molecule?
Answer: Its pIC50 is 7.60.

Question: And the RF (HL-60-BCRP; IC50 HL-60-BCRP / IC50 HL-60 parental)?
Answer: Its RF is 1.4.

Question: What about the pIC50 (A2780-parental) of the same molecule?
Answer: Its pIC50 is 7.63.

Question: And the “in vitro tubule formation” value (HUVECs)?
Answer: Its value is “prevented spontaneous in vitro tubule formation”.

Question: Which GI50 (MALME-3M) does the source give for `COc1ccc(C2C(c3ccccc3)C(=O)N2c2cc(OC)c(OC)c(OC)c2)cc1` (stereo not drawn) [Compound 8, 4-(4-Methoxy-phenyl)-3-phenyl-1-(3,4,5-trimethoxy-phenyl)-azetidin-2-one] here?
Answer: Its GI50 is greater than 100000 nM.

Question: And the GI50 (MOLT-4)?
Answer: The GI50 was 31.6 nM.
